Columns and labels:
[1] = target: T1, human CYP11B1 (Homo sapiens, UniProt P15538); assay: Inhibition of hCYP11B1 in transfected V79 cells; type: cell-based; details: hamster V79 cells expressing human CYP11B1; substrate 11-deoxycortisol 200 nM
T1 construct: expressed in transfected cells
T1 sequence (P15538 25-503): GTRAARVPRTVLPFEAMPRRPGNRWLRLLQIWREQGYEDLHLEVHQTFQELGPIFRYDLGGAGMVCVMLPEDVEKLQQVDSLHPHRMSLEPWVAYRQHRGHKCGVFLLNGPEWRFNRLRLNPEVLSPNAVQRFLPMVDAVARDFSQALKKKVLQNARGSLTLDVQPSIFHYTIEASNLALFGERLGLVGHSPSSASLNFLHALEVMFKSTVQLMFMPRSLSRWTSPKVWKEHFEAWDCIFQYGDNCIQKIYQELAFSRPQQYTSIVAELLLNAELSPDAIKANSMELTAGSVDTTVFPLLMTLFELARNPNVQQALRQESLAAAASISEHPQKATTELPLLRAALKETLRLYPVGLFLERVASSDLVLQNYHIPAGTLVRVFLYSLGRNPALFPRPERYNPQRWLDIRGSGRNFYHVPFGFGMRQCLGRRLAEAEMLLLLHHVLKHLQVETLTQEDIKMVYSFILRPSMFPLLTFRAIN
Procedure, shortened: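 V79 hamster cells stably expressing human CYP11B1 and rat NADPH-P450 reductase were preincubated with compounds for 2 h. 11-Deoxycortisol (200 nM) was then added as substrate for 30 min before ethyl acetate quench. Substrate and product were quantified by LC-MS/MS or HPLC at 260 nm, and IC50 was derived from percent inhibition.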

[2] = target: T2, human CYP11B2 (Homo sapiens, UniProt P19099); assay: Inhibition of hCYP11B2 in transfected V79 cells; type: cell-based; details: hamster V79 cells expressing human CYP11B2; substrate 11-deoxycorticosterone 200 nM
T2 construct: expressed in transfected cells
T2 sequence (P19099 25-503): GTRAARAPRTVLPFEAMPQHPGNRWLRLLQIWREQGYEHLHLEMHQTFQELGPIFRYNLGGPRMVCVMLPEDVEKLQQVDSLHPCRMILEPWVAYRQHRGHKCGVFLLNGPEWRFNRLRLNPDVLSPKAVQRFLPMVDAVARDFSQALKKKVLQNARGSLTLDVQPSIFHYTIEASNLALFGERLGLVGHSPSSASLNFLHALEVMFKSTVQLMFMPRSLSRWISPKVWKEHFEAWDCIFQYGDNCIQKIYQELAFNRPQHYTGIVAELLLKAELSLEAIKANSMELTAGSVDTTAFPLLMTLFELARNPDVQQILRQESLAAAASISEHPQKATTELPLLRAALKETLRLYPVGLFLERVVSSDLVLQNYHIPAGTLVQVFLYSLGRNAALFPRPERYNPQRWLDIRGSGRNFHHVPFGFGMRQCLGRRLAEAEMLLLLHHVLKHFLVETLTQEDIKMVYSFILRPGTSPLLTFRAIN
Procedure, shortened: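 Hamster V79 cells stably co-expressing human CYP11B2 and rat NADPH-P450 reductase were pre-incubated with compounds for 2 hours, then given 200 nM 11-deoxycorticosterone for 30 minutes before ethyl acetate quench. Substrate and product were quantified by LC-MS/MS or HPLC at 260 nm, and IC50 was derived from percent inhibition.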

Row | IC50 [1] | IC50 [2] | SMILES
1 | 468 nM | 4.1 nM | N#Cc1ccc(-c2cncc3c2OCCN3C(=O)[C@H]2CCN(Cc3cccc(F)c3)C2)cc1 [O104, (S)-4-(4-(1-(3-Fluorobenzyl)pyrrolidine-3-carbonyl)-3,4-dihydro-2H-pyrido[4,3-b][1,4]oxazin-8-yl)benzonitrile]
2 | 650 nM | 29 nM | N#Cc1ccc(-c2cncc3c2OCCN3C(=O)[C@@H]2CCN(Cc3cccc(F)c3)C2)cc1 [O105, (R)-4-(4-(1-(3-Fluorobenzyl)pyrrolidine-3-carbonyl)-3,4-dihydro-2H-pyrido[4,3-b][1,4]oxazin-8-yl)benzonitrile]
3 | 359 nM | 7.9 nM | Clc1ccc2oc(-c3cncc4c3OCCN4)cc2c1 [O108, 8-(5-Chlorobenzofuran-2-yl)-3,4-dihydro-2H-pyrido[4,3-b][1,4]oxazine]
4 | 376 nM | 4.8 nM | N#Cc1ccc2oc(-c3cncc4c3OCCN4)cc2c1 [O109, 2-(3,4-Dihydro-2H-pyrido[4,3-b][1,4]oxazin-8-yl)benzofuran-5-carbonitrile]
5 | 484 nM | 19.3 nM | N#Cc1ccc(-c2cncc3c2OCCN3S(=O)(=O)C2CN(C(=O)c3cccc(C#N)c3)C2)cc1 [O110, 4-(4-((1-(3-Cyanobenzoyl)azetidin-3-yl)sulfonyl)-3,4-dihydro-2H-pyrido[4,3-b][1,4]oxazin-8-yl)benzonitrile]
6 | 216 nM | 23.2 nM | N#Cc1ccc(C(=O)N2CC(S(=O)(=O)N3CCOc4c(-c5ccc(C#N)cc5)cncc43)C2)cc1 [O111, 4-(4-((1-(4-Cyanobenzoyl)azetidin-3-yl)sulfonyl)-3,4-dihydro-2H-pyrido[4,3-b][1,4]oxazin-8-yl)benzonitrile]
7 | 169 nM | 27 nM | COc1cccc(C(=O)N2CC(S(=O)(=O)N3CCOc4c(-c5ccc(C#N)cc5)cncc43)C2)c1 [O112, 4-(4-((1-(3-Methoxybenzoyl)azetidin-3-yl)sulfonyl)-3,4-dihydro-2H-pyrido[4,3-b][1,4]oxazin-8-yl)benzonitrile]
8 | 97 nM | 3 nM | COc1ccc(C(=O)N2CC(S(=O)(=O)N3CCOc4c(-c5ccc(C#N)cc5)cncc43)C2)cc1 [O113, 4-(4-((1-(4-Methoxybenzoyl)azetidin-3-yl)sulfonyl)-3,4-dihydro-2H-pyrido[4,3-b][1,4]oxazin-8-yl)benzonitrile]
9 | 69 nM | 7 nM | N#Cc1ccc(-c2cncc3c2OCCN3S(=O)(=O)C2CN(S(=O)(=O)c3ccc(C#N)cc3)C2)cc1 [O114, 4-((3-((8-(4-Cyanophenyl)-2,3-dihydro-4H-pyrido[4,3-b][1,4]oxazin-4-yl)sulfonyl)azetidin-1-yl)sulfonyl)benzonitrile]
10 | 104 nM | 3.2 nM | N#Cc1ccc(-c2cncc3c2OCCN3S(=O)(=O)C2CN(S(=O)(=O)c3cccc(C#N)c3)C2)cc1 [O115, 3-((3-((8-(4-Cyanophenyl)-2,3-dihydro-4H-pyrido[4,3-b][1,4]oxazin-4-yl)sulfonyl)azetidin-1-yl)sulfonyl)benzonitrile]
11 | 54 nM | 3.1 nM | N#Cc1ccc(-c2cncc3c2OCCN3S(=O)(=O)C2CN(S(=O)(=O)c3ccc(F)cc3)C2)cc1 [O116, 4-(4-((1-((4-Fluorophenyl)sulfonyl)azetidin-3-yl)sulfonyl)-3,4-dihydro-2H-pyrido[4,3-b][1, 4]oxazin-8-yl)benzonitrile]
12 | 45 nM | 2.4 nM | N#Cc1ccc(-c2cncc3c2OCCN3S(=O)(=O)C2CN(S(=O)(=O)c3cccc(F)c3)C2)cc1 [O117, 4-(4-((1-((3-Fluorophenyl)sulfonyl)azetidin-3-yl)sulfonyl)-3,4-dihydro-2H-pyrido[4,3-b][1, 4]oxazin-8-yl)benzonitrile]
13 | 39 nM | 2.7 nM | COc1ccc(S(=O)(=O)N2CC(S(=O)(=O)N3CCOc4c(-c5ccc(C#N)cc5)cncc43)C2)cc1 [O118, 4-(4-((1-((4-Methoxyphenyl)sulfonyl)azetidin-3-yl)sulfonyl)-3,4-dihydro-2H-pyrido[4,3-b][1,4]oxazin-8-yl)benzonitrile]
14 | 38 nM | 4.2 nM | COc1cccc(S(=O)(=O)N2CC(S(=O)(=O)N3CCOc4c(-c5ccc(C#N)cc5)cncc43)C2)c1 [O119, 4-(4-((1-((3-Methoxyphenyl)sulfonyl)azetidin-3-yl)sulfonyl)-3,4-dihydro-2H-pyrido[4,3-b][1,4]oxazin-8-yl)benzonitrile]
15 | 29 nM | 0.3 nM | N#Cc1ccc(-c2cncc3c2OCCN3S(=O)(=O)C2CN(Cc3cccc(C#N)c3)C2)cc1 [O120, 3-((3-((8-(4-Cyanophenyl)-2,3-dihydro-4H-pyrido[4,3-b][1,4]oxazin-4-yl)sulfonyl)azetidin-1-yl)methyl)benzonitrile]
16 | 36 nM | 0.4 nM | N#Cc1ccc(CN2CC(S(=O)(=O)N3CCOc4c(-c5ccc(C#N)cc5)cncc43)C2)cc1 [O121, 4-(4-((1-(4-Cyanobenzyl)azetidin-3-yl)sulfonyl)-3,4-dihydro-2H-pyrido[4,3-b][1,4]oxazin-8-yl)benzonitrile]
17 | 59 nM | 0.8 nM | N#Cc1ccc(-c2cncc3c2OCCN3S(=O)(=O)C2CN(Cc3cccc(F)c3)C2)cc1 [O122, 4-(4-((1-(3-Fluorobenzyl)azetidin-3-yl)sulfonyl)-3,4-dihydro-2H-pyrido[4,3-b][1,4]oxazin-8-yl)benzonitrile]
18 | 26 nM | 0.3 nM | N#Cc1ccc(-c2cncc3c2OCCN3S(=O)(=O)C2CN(Cc3ccc(F)cc3)C2)cc1 [O123, 4-(4-((1-(4-Fluorobenzyl)azetidin-3-yl)sulfonyl)-3,4-dihydro-2H-pyrido[4,3-b][1,4]oxazin-8-yl)benzonitrile]
19 | 38 nM | 0.6 nM | COc1cccc(CN2CC(S(=O)(=O)N3CCOc4c(-c5ccc(C#N)cc5)cncc43)C2)c1 [O124, 4-(4-((1-(3-Methoxybenzyl)azetidin-3-yl)sulfonyl)-3,4-dihydro-2H-pyrido[4,3-b][1,4]oxazin-8-yl)benzonitrile]
20 | 28 nM | 0.5 nM | COc1ccc(CN2CC(S(=O)(=O)N3CCOc4c(-c5ccc(C#N)cc5)cncc43)C2)cc1 [O125, 4-(4-((1-(4-Methoxybenzyl)azetidin-3-yl)sulfonyl)-3,4-dihydro-2H-pyrido[4,3-b][1,4]oxazin-8-yl)benzonitrile]
21 | 126 nM | 3 nM | N#Cc1ccc(-c2cncc3c2OCCN3S(=O)(=O)C2CN(c3cccc(F)c3)C2)cc1 [O126, 4-(4-((1-(3-Fluorophenyl)azetidin-3-yl)sulfonyl)-3,4-dihydro-2H-pyrido[4,3-b][1,4]oxazin-8-yl)benzonitrile]
22 | 197 nM | 2.3 nM | N#Cc1ccc(-c2cncc3c2OCCN3S(=O)(=O)C2CN(c3ccc(F)cc3)C2)cc1 [O127, 4-(4-((1-(4-Fluorophenyl)azetidin-3-yl)sulfonyl)-3,4-dihydro-2H-pyrido[4,3-b][1,4]oxazin-8-yl)benzonitrile]
23 | 256 nM | 3.3 nM | N#Cc1ccc(S(=O)(=O)N2CCOc3c(-c4cc5cc(Cl)ccc5o4)cncc32)cc1 [O128, 4-((8-(5-Chlorobenzofuran-2-yl)-2,3-dihydro-4H-pyrido[4,3-b][1,4]oxazin-4-yl)sulfonyl)benzonitrile]
24 | 243 nM | 1.9 nM | N#Cc1ccc(S(=O)(=O)N2CCOc3c(-c4cc5cc(C#N)ccc5o4)cncc32)cc1 [O129, 2-(4-((4-Cyanophenyl)sulfonyl)-3,4-dihydro-2H-pyrido[4,3-b][1,4]oxazin-8-yl)benzofuran-5-carbonitril]
25 | 97 nM | 5 nM | N#Cc1ccc(-c2cncc3c2OCCN3S(=O)(=O)c2ccc(C#N)cc2)cc1 [O130, 4-((8-(4-Cyanophenyl)-2,3-dihydro-4H-pyrido[4,3-b][1,4]oxazin-4-yl)sulfonyl)benzonitrile]
26 | 248 nM | 3.3 nM | N#Cc1ccc(S(=O)(=O)N2CCOc3c(-c4ccc5ncoc5c4)cncc32)cc1 [O131, 4-((8-(Benzo[d]oxazol-6-yl)-2,3-dihydro-4H-pyrido[4,3-b][1,4]oxazin-4-yl)sulfonyl)benzonitrile]
